Consider 1 compound from US9623021B2, “Nuclear receptor binding agents” (GTX, Inc., priority 2007, dated 2017).

The structures appear in SMILES notation.

The target of assay [1] is ERα ligand binding domain (Homo sapiens (Human), UniProt P03372). Description: Competitive [3H]-estradiol radioligand binding, ERα (Example 21).
The test system of assay [2] is LNCaP cells and human prostate stromal cells xenograft. Description: LNCaP-stromal cell xenograft tumor growth. It is filed as in vivo, nude mice. The following applies: 30 mg/kg/day for 21 days, by day 21. As for the experimental part:
Prostate tumor xenografts were established with LNCaP cells and human prostate stromal cells in nude mice to establish the in vivo anti-proliferative effects of these ER-β NRBAs. A 4:1 ratio (based on cell number) of LNCaP:stroma cells was injected subcutaneously in nude mice and allowed to grow until they attained 100 mm^3 in volume, as measured by calipers. […] Tumor volumes were measured twice a week and percent tumor volume calculated, after 10, 14 and 21 days.

For assay [3], the target named is T1, ER-α (Rattus norvegicus (Rat), UniProt P06211). Description: Transient transfection and reporter gene assay, ER-α, HEK-293 cells (Example 22A). The conditions noted are these: ERE-LUC. It is filed as cell-based. As for the experimental part:
Human estrogen receptors (ER-α and ER-β) were cloned from prostate cDNA into a pCR3.1 plasmid vector backbone. PGC-1 was cloned into mammalian two hybrid vector pACT. ER-β H475 was mutated to alanine using site-directed mutagenesis. Sequencing was performed to determine the absence of any non specific mutations. SHP promoter (−572 to +10) (26) was cloned into pGL3 basic LUC reporter vector and human FXR was cloned into pCR3.1. HEK-293 cells were plated at 100,000 cells per well of a 24 well plate in […] (DMEM)+5% charcoal-stripped fetal bovine serum (csFBS). The cells were transfected using Lipofectamine (Invitrogen, Carlsbad, Calif.) with 0.25 μg ERE-LUC, 0.02 μg CMV-LUC (renilla luciferase) and 12.5 ng of rat ER-α or 25 ng rat ER-β. […] Luciferase assays were performed 48 hrs after transfection.
To determine if the selectivity in ER binding also translated into ER-β-selective activity, transient transactivation assays were performed in HEK-293 cells transfected with plasmids encoding ER-α or ER-β and ERE-LUC. The cells were treated with varying concentrations of the ligands and their EC50 values were determined.

Assay [4] concerns PPAR-α. In words: PPAR-α transactivation (PPRE-LUC) in HEK-293 cells co-transfected with ER-β. The conditions noted are these: FIG. 12A right panel. It counts as cell-based. As for the experimental part: (§1) FIG. 12 depict the effect of ER-β ligand on PPAR-γ function through ligand binding domain (LBD). (A). HEK-293 cells were transfected with 0.25 μg PPRE-LUC, 5 ng CMV-renilla LUC and the indicated receptors (PPAR-γ and ER-β for the left panel and PPAR-α and ER-β for the right panel). The cells were treated 24 hrs after transfection with the indicated ligands and harvested 48 hrs after transfection and firefly luciferase activity was measured and normalized to renilla luciferase. (B). H475 in ER-β LBD is important for its function. H475 in ER-β LBD was mutated to alanine (A) using a site directed mutagenesis kit. Transactivation assay was performed as described in panel A in HEK-293 cells with a titration of ER-β ligands in wild type or ER-β H475A. (C). […] The cells were treated 24 hrs after transfection with the indicated ligands and harvested 48 hrs after transfection and firefly luciferase activity was measured and normalized to renilla luciferase. […] The cells were treated 24 hrs after transfection with the indicated ligands and harvested 48 hrs after transfection and firefly luciferase activity was measured and normalized to renilla luciferase. […] The cells were treated 24 hrs after transfection with the indicated ligands and harvested 48 hrs after transfection and firefly luciferase activity was measured and normalized to renilla luciferase. […]

Assay [5] has as its target T1, ER-α. It counts as cell-based. The conditions noted are these: 100 nM NRBA compared to 1 nM estradiol. Put shortly: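 COS or 293 cells in phenol red-free medium with charcoal-stripped FBS, transfected with a 2×ERE firefly luciferase reporter, CMV-Renilla control and rat-cloned receptor. Compounds, estrogen or DHT added 24 h post transfection, alone or combined; firefly and Renilla luciferase read 48 h after transfection.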

Assay [6] has as its system high fat diet fed obese mice. Description: High fat diet induced obesity model, treatment study (study 3). It counts as in vivo, C57BL6 male mice. The conditions noted are these: high fat diet 6 weeks, then 30 mg/kg/day s.c. How it is done:
For the treatment obesity study (where the animals were fed with high fat diet for six weeks prior to beginning drug treatment for 18 weeks), MRI scans were performed at weeks 0, 6, 12, 18 and 24.
As the first two studies were designed to prevent obesity (i.e. animals were fed with a high fat diet and treated simultaneously), a subsequent study was conducted to evaluate the ability of 12u to affect body composition in mice that were already fed with the high fat diet and were obese. Mice were divided into three groups with one group fed with normal diet (control) and the other two groups fed with the high fat diet for 6 weeks. […] All the animals were maintained in their respective diets during the entire course of the study.

For assay [7], the system named is PPAR-γ. Description: PPAR-γ transactivation (PPRE-LUC) in HEK-293 cells co-transfected with ER-β. It counts as cell-based. The conditions noted are these: FIG. 12A left panel. How it is done: as §1

The term Ki denotes a dissociation constant, usually derived from enzyme kinetics or from competition with a known ligand.

ERα ligand binding domain, sequence (P03372 whole entry, looked up, species assumed, the tested form may be a part): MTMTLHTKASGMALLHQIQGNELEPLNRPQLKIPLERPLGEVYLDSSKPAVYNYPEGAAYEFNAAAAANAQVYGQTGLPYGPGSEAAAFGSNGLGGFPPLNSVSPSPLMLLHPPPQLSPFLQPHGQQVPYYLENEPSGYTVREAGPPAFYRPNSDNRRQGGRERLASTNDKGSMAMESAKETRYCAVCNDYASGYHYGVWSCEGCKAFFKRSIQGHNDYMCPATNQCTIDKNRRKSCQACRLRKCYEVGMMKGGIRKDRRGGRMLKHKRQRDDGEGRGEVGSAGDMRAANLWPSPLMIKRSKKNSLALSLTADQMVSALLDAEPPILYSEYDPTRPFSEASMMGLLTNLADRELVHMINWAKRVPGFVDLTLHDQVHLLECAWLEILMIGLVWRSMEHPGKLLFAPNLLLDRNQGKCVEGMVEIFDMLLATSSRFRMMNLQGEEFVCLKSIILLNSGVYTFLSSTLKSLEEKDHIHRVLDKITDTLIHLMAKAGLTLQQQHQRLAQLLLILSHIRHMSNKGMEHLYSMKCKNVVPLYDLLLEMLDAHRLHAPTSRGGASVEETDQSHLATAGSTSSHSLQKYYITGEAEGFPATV

`O=c1c2c(O)cc(O)cc2c(Br)cn1-c1ccc(O)cc1` [Compound 12u, 4-bromo-6,8-dihydroxy-2-(4-hydroxyphenyl)isoquinolin-1(2H)-one] showed a Ki in assay [1] of 32 nM. In addition, in assay [2], the “tumor growth (percent tumor volume)” value was “inhibited the growth of tumor significantly”. Besides, the “function at ER-α in transactivation” value in assay [3] was “agonists”. Also, the “WY14643 induced PPAR-α transactivation” value in assay [4] is recorded as “did not affect”. Moreover, the “Estradiol activity at 100 nM, ER-α” value in assay [5] is given as 62%. For the same compound, the body weight entry in assay [6] (FIG. 10A) is recorded as “prevented further gains in body weight”. Besides, the “body fat increase (MRI)” value in assay [6] (FIG. 10B) is given as “reduced”. In addition, in assay [7], the “troglitazone-induced PPAR-γ activity” value is on record as “partially inhibited”.
